Data on five molecules can be found in article PMC12540964 (AMB Express, 2025).

Converted amounts (≈) assume the structure as drawn. Like-named read-outs stand apart in the source and are kept apart here. Marks after values point to notes of the source that are not given here.

By IC50 is commonly meant the point on the concentration scale where inhibition reaches its midpoint.

For test [1], the target named is T1, α-glucosidase (Saccharomyces cerevisiae, UniProt P53341).
T1 construct: purchased
Kind of test: α-Glucosidase inhibitory test. Type of test: biochemical. The protocol: (§1) The α-glucosidase from Saccharomyces cerevisiae and the α-amylase from Bacillus licheniformis were also obtained from reliable commercial sources. Additional reagents were carefully selected from reputable suppliers. Mueller–Hinton agar was sourced from Biokar in Beauvais, France. All other chemicals used are of analytical grade.
The inhibition of α-glucosidase action was assessed using the pNPG substrate as previously detailed (Bouyahya et al. [2021]). A mixture of 200 μL of the samples and 100 μL SPB (0.1 M & pH = 6.7), mixed with α-glucosidase (0.1 U/mL), underwent incubation at 37 °C/10 min. Next, 200 μL of pNPG (1 mM) solution in SPB (0.1 M & pH = 6.7) was added, then incubated at 37 °C/30 min. The measurement of α-glucosidase inhibition was done by measuring the OD (405 nm) after adding 1 mL of Na2CO3 (0.1 M).

The test system of test [2] is Pseudomonas aeruginosa NIH. The test is described as follows: Microdilution method (MIC, MBC). Type of test: cell-based. Particulars: for MBC/MIC: 1 suggests bactericidal; for MBC / MIC: Pseudomonas aeruginosa; for MBC: read-out: MBC (minimum bactericidal concentration); for MIC: read-out: MIC (minimum inhibitory concentration). The protocol:
(§2) The strains Escherichia coli (ATCC 25922), Pseudomonas aeruginosa NIH, Listeria monocytogenes (ATCC 13932), and Staphylococcus aureus (ATCC 29213) were used. After overnight incubation at 30 °C, the inhibition zone diameters (IZD) were measured in millimeters (mm). Next, the microdilution method served to assess the minimum inhibitory concentration (MIC) and minimum bactericidal concentration (MBC) (Bouyahya et al. [2020a], [b]).
For orientation: Dilution methods test growth across graded concentrations, often in twofold steps.

Test [3] concerns Listeria monocytogenes (ATCC 13932). Kind of test: Microdilution method (MIC, MBC). Type of test: cell-based. Particulars: for MBC/MIC: 1 suggests bactericidal; for MBC / MIC: Listeria monocytogenes. As for the experimental part: as §2
Test [4] relates to Escherichia coli (ATCC 25922). Kind of test: Microdilution method (MIC, MBC). Type of test: cell-based. The protocol:
as §2

Test [5] concerns Staphylococcus aureus (ATCC 29213). Kind of test: Microdilution method (MIC, MBC). Type of test: cell-based. The protocol: as §2
The target in test [6] is T2, α-amylase (Bacillus licheniformis, UniProt P06278).
T2 construct: purchased
The test is described as follows: α-Amylase inhibitory test. It counts as biochemical. The protocol: as §1
Initially, 250 μL of each sample was mixed with 250 μL of sodium phosphate buffer (SPB) (0.02 M & pH = 6.9) and α-amylase enzyme (240 U/mL). The blend was then incubated at 37 °C/20 min. Then, a 1% starch solution (250 μL) in SPB was added, followed by incubation at 37 °C/15 min. Thereafter, 1 mL of dinitrosalicylic acid (DNS) was also added, and the mix was heated for 10 min (Bouyahya et al. [2019a], [b]; Omari et al. [2023]). The solution was then diluted with 2 mL of sterile water, and the OD (540 nm) was measured. […] The % of inhibition was calculated using the formula: [drawing 1]

Test [7] in a line: ABTS radical scavenging activity. As for the experimental part:
The ABTS cation radical was generated from the reaction between ABTS solution and potassium persulfate with Trolox as a positive control. The assay was performed in triplicate and expressed in IC50 (μg/mL) (El Omari et al. [2023]).

In test [8] the test system is Pseudomonas aeruginosa NIH. Kind of test: Disk diffusion method (inhibition zone diameter). It counts as cell-based. The note with it: P. aeruginosa, Gram-negative. As for the experimental part: as §2
Background: Agar diffusion results depend on both activity and mobility in agar.

The test system of test [9] is Listeria monocytogenes (ATCC 13932). Kind of test: Disk diffusion method (inhibition zone diameter). Type of test: cell-based. The note with it: L. monocytogenes, Gram-positive. The protocol: as §2
Test [10] relates to Escherichia coli (ATCC 25922). Kind of test: Disk diffusion method (inhibition zone diameter). Type of test: cell-based. The note with it: E. coli, Gram-negative. The protocol: as §2
Test [11] deals with Staphylococcus aureus (ATCC 29213). Kind of test: Disk diffusion method (inhibition zone diameter). It counts as cell-based. The note with it: S. aureus, Gram-positive. As for the experimental part:
as §2

Test [12] has as its target elastase (Sus scrofa, UniProt P00772). Kind of test: Elastase inhibitory assay. Type of test: biochemical. Particulars: 410 nm. The protocol:
Then, 200 µL of an elastase solution prepared in Tris–HCl buffer (0.2 M, pH 8.0) was mixed with 50 µL of each sample. Following a 15-min incubation at 25 °C, 200 µL of N-succinyl-Ala-Ala-p-nitroanilide solution was added, and the reaction mixtures were homogenized. Absorbances were recorded at 410 nm after an additional 20-min incubation at 25 °C. The data obtained were used to determine the IC50 and to calculate the percent inhibition of elastase.

Test [13] addresses tyrosinase (Agaricus bisporus, UniProt C7FF04). More on the design: method as in El Khoury et al. [2019]. Particulars: carvacrol from Origanum EOs; ref El Khoury et al. [2019]; cited from earlier work.
A short description of test [14]: Reducing ferric power test (FRAP). Particulars: 700 nm. The protocol:
CEEO, carvacrol, menthol, and tricosane were mixed with phosphate buffer and potassium ferricyanide solution, incubated, and treated with trichloroacetic acid. After centrifugation, the upper layer was analyzed for absorbance (700 nm) with Trolox serving as a reference. The assay was done in triplicate, and the IC50 (μg/mL) was calculated (El Omari et al. [2023]).

A short description of test [15]: DPPH test. Particulars: radical scavenging, 30 min, 517 nm. As for the experimental part:
This assay used DPPH radical to assess the free radical-scavenging ability. Samples dissolved in methanol were mixed with a methanolic solution of DPPH and incubated, in triplicate, at ambient temperature for 30 min (El Omari et al. [2023]). Absorbance was read at 517 nm, and the percentage of DPPH radical scavenging and the inhibition in IC50 (μg/mL) were calculated. Trolox served as a positive control.
Background: Loss of DPPH colour is used to gauge radical scavenging.

The mark [16] stands for this setting: Elastase IC50, N-succinyl-Ala-Ala-p-nitroanilide.
Setting [17] is: ATCC13932, L. monocytogenes, read-out: MBC (minimum bactericidal concentration).
The mark [18] stands for this setting: ATCC13932, L. monocytogenes, read-out: MIC (minimum inhibitory concentration).
Where [19] appears, read: ATCC25922, E. coli, read-out: MBC (minimum bactericidal concentration).
[20] abbreviates: ATCC25922, E. coli, read-out: MIC (minimum inhibitory concentration).
The mark [21] stands for this setting: ATCC29213, S. aureus, read-out: MBC (minimum bactericidal concentration).
Where [22] appears, read: ATCC29213, S. aureus, read-out: MIC (minimum inhibitory concentration).

T2 sequence (P06278 30-512): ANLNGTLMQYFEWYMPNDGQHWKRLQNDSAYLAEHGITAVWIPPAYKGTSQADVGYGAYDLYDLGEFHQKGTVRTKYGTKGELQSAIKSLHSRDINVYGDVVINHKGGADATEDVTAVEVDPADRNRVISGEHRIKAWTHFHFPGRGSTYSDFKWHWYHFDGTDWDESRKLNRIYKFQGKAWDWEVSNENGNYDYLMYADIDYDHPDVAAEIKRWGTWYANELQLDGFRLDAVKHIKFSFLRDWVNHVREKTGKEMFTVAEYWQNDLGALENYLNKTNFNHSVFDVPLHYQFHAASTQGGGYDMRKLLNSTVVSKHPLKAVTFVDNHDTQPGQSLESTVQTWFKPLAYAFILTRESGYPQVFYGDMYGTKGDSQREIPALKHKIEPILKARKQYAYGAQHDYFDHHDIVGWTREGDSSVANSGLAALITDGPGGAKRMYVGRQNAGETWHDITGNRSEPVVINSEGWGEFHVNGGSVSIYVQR
Sequence of elastase (P00772 27-266): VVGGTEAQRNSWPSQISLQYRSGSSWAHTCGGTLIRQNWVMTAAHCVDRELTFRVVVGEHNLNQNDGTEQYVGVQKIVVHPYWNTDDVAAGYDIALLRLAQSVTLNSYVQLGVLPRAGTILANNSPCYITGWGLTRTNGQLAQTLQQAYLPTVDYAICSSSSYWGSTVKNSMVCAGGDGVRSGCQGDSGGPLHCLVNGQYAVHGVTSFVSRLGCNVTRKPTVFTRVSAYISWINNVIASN
T1 sequence (P53341 whole entry): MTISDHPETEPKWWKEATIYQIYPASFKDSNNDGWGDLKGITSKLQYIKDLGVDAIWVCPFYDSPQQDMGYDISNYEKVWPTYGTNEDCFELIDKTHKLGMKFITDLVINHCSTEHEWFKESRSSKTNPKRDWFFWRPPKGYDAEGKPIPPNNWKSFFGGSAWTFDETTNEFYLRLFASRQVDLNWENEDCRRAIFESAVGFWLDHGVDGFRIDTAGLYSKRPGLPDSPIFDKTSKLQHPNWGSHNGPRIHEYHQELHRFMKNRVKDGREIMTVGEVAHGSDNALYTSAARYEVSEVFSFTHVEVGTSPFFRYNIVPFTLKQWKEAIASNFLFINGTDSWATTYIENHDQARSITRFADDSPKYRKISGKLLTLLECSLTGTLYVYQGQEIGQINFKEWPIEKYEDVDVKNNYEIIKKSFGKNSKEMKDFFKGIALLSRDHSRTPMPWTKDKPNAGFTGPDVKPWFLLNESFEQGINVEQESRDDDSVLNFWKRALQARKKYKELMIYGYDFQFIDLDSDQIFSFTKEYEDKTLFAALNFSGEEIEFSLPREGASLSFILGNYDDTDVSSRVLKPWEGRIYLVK
Sequence of tyrosinase (C7FF04 1-392): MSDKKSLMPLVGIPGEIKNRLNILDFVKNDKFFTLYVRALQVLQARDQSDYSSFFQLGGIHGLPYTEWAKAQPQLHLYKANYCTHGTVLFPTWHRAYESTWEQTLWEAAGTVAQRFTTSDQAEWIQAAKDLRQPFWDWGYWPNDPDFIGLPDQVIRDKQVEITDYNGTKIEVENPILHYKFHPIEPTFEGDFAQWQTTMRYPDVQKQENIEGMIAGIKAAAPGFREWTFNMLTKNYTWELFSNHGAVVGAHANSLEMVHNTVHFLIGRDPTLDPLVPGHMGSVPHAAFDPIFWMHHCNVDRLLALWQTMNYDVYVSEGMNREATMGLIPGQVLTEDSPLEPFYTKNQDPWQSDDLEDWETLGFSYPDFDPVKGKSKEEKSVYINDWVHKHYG

As to `Cc1ccc(C(C)C)cc1O` [Carvacrol, carvacrol], the IC50 in test [1] is 1340 µM; in test [6], 3770 µM; in test [12] (setting [16]) it was 830 µM. In addition, the MBC/MIC in test [2] (P. aeruginosa) and in test [3] (L. monocytogenes) was 1 in each case. Further, the MBC in [2] amounted to 0.5 mg/L (≈ 3.33 µM); in [3] (ATCC13932, read-out: MBC (minimum bactericidal concentration)) it was 0.125 mg/L (≈ 0.832 µM); in test [4] (ATCC25922, read-out: MBC (minimum bactericidal concentration)), 0.25 mg/L (≈ 1.66 µM); in test [5] (ATCC29213, read-out: MBC (minimum bactericidal concentration)), 0.025 mg/L (≈ 0.166 µM). For the same molecule, the MIC in test [2] worked out at 0.5 mg/L (≈ 3.33 µM); in test [3] (ATCC13932, read-out: MIC (minimum inhibitory concentration)), 0.125 mg/L (≈ 0.832 µM); in [4] (ATCC25922, read-out: MIC (minimum inhibitory concentration)), 0.125 mg/L (≈ 0.832 µM); in [5] (ATCC29213, read-out: MIC (minimum inhibitory concentration)) it was 0.0125 mg/L (≈ 0.0832 µM). Besides, in [7], the “ABTS IC50” value was 81.41 ± 4.31^b µg/mL. In addition, the “IZD (inhibition zone diameter)” value in [8] is 29 ± 2.64^c mm; in test [9], 33 ± 2.64^a mm; in test [10] it was 31.33 ± 2.51^b mm; in test [11], 35.33 ± 1.52^a mm. Moreover, the tyrosinase inhibition in [13] was 56.55%. Also, the “FRAP IC50” value in [14] is recorded as 59.96 ± 2.60^f µg/mL. In test [15], the “DPPH IC50” value is on record as 48.06 ± 4.31^h µg/mL.
Regarding `CC1CCC(C(C)C)C(O)C1` (stereo not shown) [Menthol, menthol], the results for the IC50 in test [1], in [6] and in test [12] (setting [16]) were 1170 µM, 3020 µM and 717 µM, respectively. In addition, the MBC in [2] (P. aeruginosa) is 1 mg/L (≈ 6.4 µM); in test [3] (setting [17]) it was 0.5 mg/L (≈ 3.2 µM); in test [4] (setting [19]) it was 2 mg/L (≈ 12.8 µM); in [5] (setting [21]), 1 mg/L (≈ 6.4 µM). Besides, the MIC in test [2] (P. aeruginosa) was found to be 0.25 mg/L (≈ 1.6 µM); in test [3] (setting [18]), 0.25 mg/L (≈ 1.6 µM); in test [4] (setting [20]), 0.5 mg/L (≈ 3.2 µM); in test [5] (setting [22]), 0.5 mg/L (≈ 3.2 µM). Moreover, the “ABTS IC50” value in test [7] is listed as 71.76 ± 3.16^a µg/mL. The “IZD (inhibition zone diameter)” value is reported as 18 ± 4.5^b mm in test [8], 26.33 ± 1.52^b mm in test [9], 14 ± 2^a mm in test [10] and 32 ± 2.64^a mm in [11]. In addition, the “FRAP IC50” value in test [14] is given as 57.93 ± 15.63^f µg/mL. Besides, the “DPPH IC50” value in test [15] was 58.89 ± 4.03^a µg/mL.
On to `Cc1c(C)c2c(c(C)c1O)CCC(C)(C(=O)O)O2` (stereo not shown) [Trolox, reference compound], for which, in test [7], the “ABTS IC50” value is 55.25 ± 4.19^b µg/mL. Moreover, the “FRAP IC50” value in test [14] was 54.74 ± 3.85^f µg/mL. Further, in test [15], the “DPPH IC50” value is listed as 34.12 ± 2.13^h µg/mL.
`CCCCCCCCCCCCCCCCCCCCCCC` [Tricosane, tricosane]: the IC50 is 592 µM in test [1]; 1190 µM in test [6]; 384 µM in [12] (N-succinyl-Ala-Ala-p-nitroanilide, read-out: Elastase IC50 (converted)). Also, the MBC/MIC in test [2] (P. aeruginosa) and in test [3] (L. monocytogenes) was 1 in each case. In addition, the MBC in [2] (P. aeruginosa) amounted to 0.5 mg/L (≈ 1.54 µM); in test [3] (setting [17]) it was 0.25 mg/L (≈ 0.77 µM); in test [4] (setting [19]) it was 1 mg/L (≈ 3.08 µM); in test [5] (setting [21]), 0.5 mg/L (≈ 1.54 µM). The MIC in [2] (P. aeruginosa) is 0.5 mg/L (≈ 1.54 µM); in test [3] (setting [18]), 0.25 mg/L (≈ 0.77 µM); in [4] (setting [20]), 0.25 mg/L (≈ 0.77 µM); in [5] (setting [22]) it was 0.125 mg/L (≈ 0.385 µM). The “ABTS IC50” value in [7] came to 120.34 ± 2.97 µg/mL. In addition, the “IZD (inhibition zone diameter)” value in test [8] is reported as 17 ± 2.51^b mm; in [9] it was 31.67 ± 4.04^b mm; in test [10], 20.67 ± 2.08^C mm; in test [11], 29 ± 4.58^a mm. Also, the “FRAP IC50” value in test [14] came to 103.9 ± 2.48 µg/mL. Also, in [15], the “DPPH IC50” value is listed as 91.03 ± 0.3^b µg/mL.
With `O=C(N[C@H](CO)[C@H](O)c1ccc([N+](=O)[O-])cc1)C(Cl)Cl` [Chloramphenicol, reference compound], the MBC in [2] (P. aeruginosa) was determined as 64 mg/L (≈ 198 µM); in [3] (setting [17]), 32 mg/L (≈ 99 µM); in test [4] (setting [19]), 32 mg/L (≈ 99 µM); in test [5] (setting [21]), 32 mg/L (≈ 99 µM). Further, the MIC is 64 mg/L (≈ 198 µM) in [2] (P. aeruginosa), 16 mg/L (≈ 49.5 µM) in test [3] (setting [18]), 8 mg/L (≈ 24.8 µM) in [4] (setting [20]) and 8 mg/L (≈ 24.8 µM) in test [5] (setting [22]).
